Numbers after ± are expanded uncertainties.
Conditions: DSC

| Triple point temperature (Crystal 1) | Triple point temperature (Crystal 2) | Triple point temperature (Crystal) | Compound |
| --- | --- | --- | --- |
| 357.15 ± 10 K | 328.15 ± 10 K | – | c1ccc2c(c1)CN(c1ccc(Cc3ccc(N4COc5ccccc5C4)cc3)cc1)CO2 [bis(4-(2H-benzo[e][1,3]oxazin-3(4H)-yl)phenyl)methane] |
| 432.15 ± 10 K | – | – | Cc1ccc2c(c1)CN(c1ccc(Cc3ccc(N4COc5ccc(C)cc5C4)cc3)cc1)CO2 |
| – | – | 435.15 ± 10 K | Cc1ccc2c(c1)OCN(c1ccc(Cc3ccc(N4COc5cc(C)ccc5C4)cc3)cc1)C2 |
| 406.15 ± 10 K | 390.15 ± 10 K | – | Cc1cc(C)c2c(c1)CN(c1ccc(Cc3ccc(N4COc5c(C)cc(C)cc5C4)cc3)cc1)CO2 |
